This note sets out measurements from patent publication US5208224A, “Phosphorus containing compounds as antihypercholesterolemic and antiatherosclerotic agents” (Warner-Lambert Company, priority 1991, dated 1993).

The test addresses T1, acyl-CoA:cholesterol acyltransferase (ACAT) (Oryctolagus cuniculus, UniProt G1SFD9).
T1 construct: tissue preparation containing rabbit intestinal microsomes; from tissue; host or cells: rabbit intestinal microsomes
T1 sequence (G1SFD9 1-524): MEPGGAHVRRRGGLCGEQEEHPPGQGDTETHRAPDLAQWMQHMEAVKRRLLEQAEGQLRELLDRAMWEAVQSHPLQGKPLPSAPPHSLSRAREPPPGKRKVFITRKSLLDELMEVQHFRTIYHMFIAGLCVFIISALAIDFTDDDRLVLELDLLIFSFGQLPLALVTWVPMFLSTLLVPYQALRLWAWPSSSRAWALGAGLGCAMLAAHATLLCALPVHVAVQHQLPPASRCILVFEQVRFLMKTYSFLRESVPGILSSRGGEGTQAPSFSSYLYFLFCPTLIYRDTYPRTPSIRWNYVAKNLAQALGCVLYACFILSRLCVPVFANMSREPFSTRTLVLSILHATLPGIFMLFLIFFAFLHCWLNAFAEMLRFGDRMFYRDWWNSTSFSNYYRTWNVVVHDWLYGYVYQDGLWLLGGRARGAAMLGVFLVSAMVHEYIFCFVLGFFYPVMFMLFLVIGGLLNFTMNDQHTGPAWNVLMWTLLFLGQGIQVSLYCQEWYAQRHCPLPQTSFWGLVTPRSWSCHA
In words: In vitro inhibition of ACAT: formation of radiolabeled cholesterol oleate from radiolabeled oleic acid in rabbit intestinal microsomes. The class given is biochemical. An excerpt:
The test assesses the ability of a test compound to inhibit the acylation of cholesterol by oleic acid by measuring the amount of radiolabeled cholesterol oleate formed from radiolabeled oleic acid in a tissue preparation containing rabbit intestinal microsomes.

Where [1] appears, read: rabbit intestinal microsomes, read-out: IC50 (concentration of test compound required to inhibit cholesteryl oleate formation to 50% of control).

Where two headings read alike, the source gives them in different places.

For the compound `CCCCCCCCCCC1CN(Cc2ccccc2)P(=O)(OCC(=O)Nc2c(C(C)C)cccc2C(C)C)O1` (racemic) [Example 30, (±)-N-[2,6-Bis(1-methylethyl)phenyl]2-[[5-decyl-3-(phenylmethyl)-1,3,2-oxazaphosphonolidin-2-yl]-oxy]acetamide, P-oxide], the IC50 worked out at 0.033 µM.
Turning to `CCCCCCCCCCCCOP(=O)(CC(=O)Nc1c(C(C)C)cccc1C(C)C)c1ccccc1` (racemic) [Example 12, (±)-[2-[[2,6-Bis(1-methylethyl)phenyl]amino]-2-oxoethyl]phenylphosphinicAcid, Dodecyl Ester], the IC50 under setting [1] came to 0.029 µM.
Consider `CCCCCCCCCOP(=O)(OCC)N(CC(=O)Nc1c(C(C)C)cccc1C(C)C)Cc1ccccc1` (racemic) [Example 32, (±)-[2-[[2,6 Bis(1-methylethyl)phenyl]amino]-2-oxoethyl](phenylmethyl)phosphoramidic Acid, Ethyl Nonyl Ester], for which the IC50 was 0.014 µM.
`CCCCCCCCCCCCC(C)OP(=O)(Oc1ccccc1)N(CC(=O)Nc1c(C(C)C)cccc1C(C)C)Cc1ccccc1` (racemic) [Example 35, (±)-[2-[[2,6-Bis(1-methylethyl)phenyl]amino]-2-oxoethyl](phenylmethyl)phosphoramidic Acid, 1-Methyltridecyl Phenyl Ester] displayed an IC50 of 0.16 µM.
Consider `CCCCCCCCCOP(=O)(Oc1ccccc1)N(CC(=O)Nc1c(C(C)C)cccc1C(C)C)Cc1ccccc1` (racemic) [Example 34, (±)-[[[2,6-Bis(1-methylethyl)phenyl]amino]2-oxoethyl]-(phenylmethyl)phosphoramidic Acid, Nonyl Phenyl Ester], for which the IC50 amounted to 0.023 µM.
Take `CC(C)c1cccc(C(C)C)c1NC(=O)CP(=O)(c1ccccc1)c1ccccc1` [Example 2, N-2,6-Bis(1-methylethyl)phenyl-2-(diphenylphosphinyl)acetamide]: the IC50 under setting [1] worked out at 2.3 µM.
Turning to `CCCCCCCCCOP(=O)(c1ccccc1)N(CC(=O)Nc1c(C(C)C)cccc1C(C)C)Cc1ccccc1` (racemic) [Example 31, (±)-N-[2-[2,6-Bis(1-methylethyl)phenyl]amino]-2-oxoethyl]-P-phenyl-N-(phenylmethyl)phosphonamidic Acid, Nonyl Ester], the IC50 under setting [1] came out at 0.023 µM.
For the compound `CC(C)c1cccc(C(C)C)c1NC(=O)CP(=O)(OCc1ccccc1)OCc1ccccc1` [Example 36, [2-[[2,6-Bis(1-methylethyl)phenyl]amino]-2-oxoethyl]phosphonic Acid, Bis (Phenylmethyl)ester], the IC50 under setting [1] is 0.072 µM.
As for `CCCCCCC(C)OP(=O)(CC(=O)Nc1c(C(C)C)cccc1C(C)C)c1ccccc1` (racemic) [Example 11, (±)-2-[2,6-Bis(1-methylethyl)phenyl]amino]-2-oxoethyl]phenylphosphinic Acid, 1-Methylheptyl Ester], the IC50 under setting [1] came out at 0.035 µM.
